{"source": "patent US11292796B2", "about": "(SIGNAL PHARMACEUTICALS, LLC, priority 2008, dated 2022)", "target": "T1, mTOR (Homo sapiens, UniProt P42345)", "T1 construct": "purchased Invitrogen PR8683A", "T1 sequence (P42345 1360-2549 limits assumed)": "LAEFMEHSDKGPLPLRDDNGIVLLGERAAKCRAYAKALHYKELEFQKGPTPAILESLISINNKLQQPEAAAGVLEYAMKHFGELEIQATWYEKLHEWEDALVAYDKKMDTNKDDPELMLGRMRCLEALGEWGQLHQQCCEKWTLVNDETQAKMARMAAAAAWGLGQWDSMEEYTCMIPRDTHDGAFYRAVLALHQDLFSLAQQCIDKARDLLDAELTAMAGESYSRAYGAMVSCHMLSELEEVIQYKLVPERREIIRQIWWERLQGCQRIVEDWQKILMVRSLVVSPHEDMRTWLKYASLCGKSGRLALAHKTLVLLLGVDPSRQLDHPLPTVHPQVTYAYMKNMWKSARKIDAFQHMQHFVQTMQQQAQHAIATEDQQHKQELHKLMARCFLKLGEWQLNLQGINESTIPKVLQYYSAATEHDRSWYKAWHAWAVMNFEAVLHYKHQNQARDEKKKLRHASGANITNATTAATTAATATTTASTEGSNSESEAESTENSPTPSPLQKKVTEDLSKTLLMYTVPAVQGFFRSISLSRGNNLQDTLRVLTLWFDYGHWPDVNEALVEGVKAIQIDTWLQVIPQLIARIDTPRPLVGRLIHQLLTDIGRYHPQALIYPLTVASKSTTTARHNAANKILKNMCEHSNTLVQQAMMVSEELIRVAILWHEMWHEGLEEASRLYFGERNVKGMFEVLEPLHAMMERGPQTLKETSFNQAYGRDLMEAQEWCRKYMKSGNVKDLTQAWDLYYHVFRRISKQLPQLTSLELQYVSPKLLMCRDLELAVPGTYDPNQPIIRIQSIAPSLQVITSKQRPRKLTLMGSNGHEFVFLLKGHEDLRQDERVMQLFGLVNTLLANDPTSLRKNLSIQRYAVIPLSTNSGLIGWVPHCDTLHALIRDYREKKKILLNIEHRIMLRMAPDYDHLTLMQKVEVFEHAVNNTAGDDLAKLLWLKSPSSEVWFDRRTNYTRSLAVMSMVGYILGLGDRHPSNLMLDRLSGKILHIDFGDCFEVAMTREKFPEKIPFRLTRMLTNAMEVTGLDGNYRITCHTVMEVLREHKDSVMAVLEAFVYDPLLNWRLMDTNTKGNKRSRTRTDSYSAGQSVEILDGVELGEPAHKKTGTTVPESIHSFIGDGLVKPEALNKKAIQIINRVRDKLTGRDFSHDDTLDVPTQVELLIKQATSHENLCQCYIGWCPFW", "assay": "mTOR HTR-FRET assay", "assay_type": "biochemical", "conditions": "read-out: Act. Level (IC50 in mTor HTR-FRET assay)", "how_it_was_run": "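Test compounds, taken from 10 mM DMSO stocks and diluted, were mixed with mTOR enzyme (0.200 μg/mL) in Tris buffer pH 7.4 with 100 mM NaCl, 0.1% Tween-20 and 1 mM DTT. ATP/substrate addition initiated the reaction, alongside compound-free controls.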"}
{"smiles": "CO[C@H]1C[C@H]2C(=O)Nc3ncc(-c4ccc(-c5nnc[nH]5)cc4C)nc3N2C1", "note": "[Example 113, 8-(4-(4H-1,2,4-triazol-3-yl)-2-methylphenyl)(2S,3aS)-2-methoxy-5,10,3a-trihydropyrazino[2,3-b]pyrrolidino[1,2-e]pyrazin-4-one]", "values": [{"measurement": "IC50", "value": "250 to 500", "unit": "nM"}]}
{"smiles": "COCCCN1CC(=O)Nc2ncc(-c3ccc(C(C)(C)O)nc3)nc21", "note": "[Example 114, 6-(6-(2-hydroxypropan-2-yl)pyridin-3-yl)-4-(3-methoxypropyl)-3,4-dihydropyrazino[2,3-b]pyrazin-2(1H)-one]", "values": [{"measurement": "IC50", "value": "1000 to 10000", "unit": "nM"}]}
{"smiles": "CC(C)(O)c1ccc(-c2cnc3c(n2)N(C[C@@H]2CCCO2)CC(=O)N3)cn1", "note": "[Example 115, (S)-6-(6-(2-hydroxypropan-2-yl)pyridin-3-yl)-4-((tetrahydrofuran-2-yl)methyl)-3,4-dihydropyrazino[2,3-b]pyrazin-2(1H)-one]", "values": [{"measurement": "IC50", "value": "1000 to 10000", "unit": "nM"}]}
{"smiles": "CC(C)(O)c1ccc(-c2cnc3c(n2)N(C[C@H]2CCCO2)CC(=O)N3)cn1", "note": "[Example 116, (R)-6-(6-(2-hydroxypropan-2-yl)pyridin-3-yl)-4-((tetrahydrofuran-2-yl)methyl)-3,4-dihydropyrazino[2,3-b]pyrazin-2(1H)-one]", "values": [{"measurement": "IC50", "value": "500 to 1000", "unit": "nM"}]}
{"smiles": "Cc1cc(-c2nnc[nH]2)ccc1-c1cnc2c(n1)N1CCN(C)CC1C(=O)N2", "note": "(stereo not drawn) [Example 118, 9-(4-(4H-1,2,4-triazol-3-yl)-2-methylphenyl)-3-methyl-6,11,4a-trihydropiperazino[1,2-e]pyrazino[2,3-b]pyrazin-5-one]", "values": [{"measurement": "IC50", "value": "500 to 1000", "unit": "nM"}]}
{"smiles": "O=C1Nc2ncc(-c3ccc(-c4nnc[nH]4)cc3)nc2N2CCOCC12", "note": "(stereo not drawn) [Example 119, 9-(4-(4H-1,2,4-triazol-3-yl)phenyl)-6,11,4a-trihydromorpholino[4,3-e]pyrazino[2,3-b]pyrazin-5-one]", "values": [{"measurement": "IC50", "value": "0.005 to 250", "unit": "nM"}]}
{"smiles": "Cc1cc(-c2nnc[nH]2)ccc1-c1cnc2c(n1)N1CCCCC1C(=O)N2", "note": "(stereo not drawn) [Example 120, 9-(4-(4H-1,2,4-triazol-3-yl)-2-methylphenyl)-6,11,4a-trihydropiperidino[1,2-e]pyrazino[2,3-b]pyrazin-5-one]", "values": [{"measurement": "IC50", "value": "0.005 to 250", "unit": "nM"}]}
{"smiles": "CC(C)(O)c1ccc(-c2cnc3c(n2)N(CCN2CCOCC2)CC(=O)N3)cn1", "note": "[Example 123, 6-(6-(2-hydroxypropan-2-yl)pyridin-3-yl)-4-(2-morpholinoethyl)-3,4-dihydropyrazino[2,3-b]pyrazin-2(1H)-one]", "values": [{"measurement": "IC50", "value": "1000 to 10000", "unit": "nM"}]}
{"smiles": "CC(C)(O)c1ccc(-c2cnc3c(n2)N(CCc2ccccc2)CC(=O)N3)cn1", "note": "[Example 124, 6-(6-(2-hydroxypropan-2-yl)pyridin-3-yl)-4-phenethyl-3,4-dihydropyrazino[2,3-b]pyrazin-2(1H)-one]", "values": [{"measurement": "IC50", "value": "250 to 500", "unit": "nM"}]}
{"smiles": "CC(C)(O)c1ccc(-c2cnc3c(n2)N([C@@H]2CCOC2)CC(=O)N3)cn1", "note": "[Example 129, (R)-6-(6-(2-hydroxypropan-2-yl)pyridin-3-yl)-4-(tetrahydrofuran-3-yl)-3,4-dihydropyrazino[2,3-b]pyrazin-2(1H)-one]", "values": [{"measurement": "IC50", "value": "500 to 1000", "unit": "nM"}]}
{"smiles": "CC(C)(O)c1ccc(-c2cnc3c(n2)N([C@H]2CCOC2)CC(=O)N3)cn1", "note": "[Example 130, (S)-6-(6-(2-hydroxypropan-2-yl)pyridin-3-yl)-4-(tetrahydrofuran-3-yl)-3,4-dihydropyrazino[2,3-b]pyrazin-2(1H)-one]", "values": [{"measurement": "IC50", "value": "500 to 1000", "unit": "nM"}]}
{"smiles": "C[C@H]1C(=O)Nc2ncc(-c3ccc(C(C)(C)O)nc3)nc2N1CCC1CCOCC1", "note": "[Example 132, (S)-6-(6-(2-hydroxypropan-2-yl)pyridin-3-yl)-3-methyl-4-(2-(tetrahydro-2H-pyran-4-yl)ethyl)-3,4-dihydropyrazino[2,3-b]pyrazin-2(1H)-one]", "values": [{"measurement": "IC50", "value": "0.005 to 250", "unit": "nM"}]}
{"smiles": "CC(C)(O)c1ccc(-c2cnc3c(n2)N2CCOCC2C(=O)N3)cn1", "note": "(stereo not drawn) [Example 133, 9-[6-(1-hydroxy-isopropyl)-3-pyridyl]-6,11,4a-trihydromorpholino[4,3-e]pyrazino[2,3-b]pyrazin-5-one]", "values": [{"measurement": "IC50", "value": "500 to 1000", "unit": "nM"}]}
{"smiles": "Cc1cc(-c2cnc3c(n2)N(Cc2cccc(C(F)(F)F)c2)CC(=O)N3)cc2nc(N)[nH]c12", "note": "[Example 136, 6-(2-amino-7-methyl-1H-benzo[d]imidazol-5-yl)-4-(3-(trifluoromethyl)benzyl)-3,4-dihydropyrazino[2,3-b]pyrazin-2(1H)-one]", "values": [{"measurement": "IC50", "value": "500 to 1000", "unit": "nM"}]}
{"smiles": "CC(C)(O)c1ccc(-c2cnc3c(n2)N(Cc2cccc(C(F)(F)F)c2)CC(=O)N3)cn1", "note": "[Example 137, 6-(6-(2-hydroxypropan-2-yl)pyridin-3-yl)-4-(3-(trifluoromethyl)benzyl)-3,4-dihydropyrazino[2,3-b]pyrazin-2(1H)-one]", "values": [{"measurement": "IC50", "value": "0.005 to 250", "unit": "nM"}]}
{"smiles": "Cc1cc(-c2nnc[nH]2)ccc1-c1cnc2c(n1)N1CCOCC1C(=O)N2", "note": "(stereo not drawn) [Example 138, 9-(4-(4H-1,2,4-triazol-3-yl)-2-methylphenyl)-6,11,4a-trihydromorpholino[4,3-e]pyrazino[2,3-b]pyrazin-5-one]", "values": [{"measurement": "IC50", "value": "0.005 to 250", "unit": "nM"}]}
{"smiles": "CNc1nc2c(C)cc(-c3cnc4c(n3)N(CCC3CCOCC3)CC(=O)N4)cc2[nH]1", "note": "[Example 139, 6-(4-methyl-2-(methylamino)-1H-benzo[d]imidazol-6-yl)-4-(2-(tetrahydro-2H-pyran-4-yl)ethyl)-3,4-dihydropyrazino[2,3-b]pyrazin-2(1H)-one]", "values": [{"measurement": "IC50", "value": "0.005 to 250", "unit": "nM"}]}
{"smiles": "Cc1cc(-c2nnc[nH]2)ccc1-c1cnc2c(n1)N1CCCC1C(=O)N2", "note": "(stereo not drawn) [Example 140, 8-(4-(4H-1,2,4-triazol-3-yl)-2-methylphenyl)-5,10,3a-trihydropyrazino[2,3-b]pyrrolidino[1,2-e]pyrazin-4-one]", "values": [{"measurement": "IC50", "value": "0.005 to 250", "unit": "nM"}]}
{"smiles": "CCN1CC(=O)Nc2ncc(-c3ccc(-c4nnc[nH]4)cc3)nc21", "note": "[Example 141, 6-(4-(4H-1,2,4-triazol-3-yl)phenyl)-4-ethyl-3,4-dihydropyrazino[2,3-b]pyrazin-2(1H)-one]", "values": [{"measurement": "IC50", "value": "250 to 500", "unit": "nM"}]}
{"smiles": "O=C1CN(CC2CCOCC2)c2nc(-c3ccc(-c4nnc[nH]4)cc3)cnc2N1", "note": "[Example 142, 6-(4-(4H-1,2,4-triazol-3-yl)phenyl)-4-((tetrahydro-2H-pyran-4-yl)methyl)-3,4-dihydropyrazino[2,3-b]pyrazin-2(1H)-one]", "values": [{"measurement": "IC50", "value": "0.005 to 250", "unit": "nM"}]}
{"smiles": "COCCN1CC(=O)Nc2ncc(-c3ccc(-c4nnc[nH]4)cc3)nc21", "note": "[Example 144, 6-(4-(4H-1,2,4-triazol-3-yl)phenyl)-4-(2-methoxyethyl)-3,4-dihydropyrazino[2,3-b]pyrazin-2(1H)-one]", "values": [{"measurement": "IC50", "value": "0.005 to 250", "unit": "nM"}]}
{"smiles": "O=C1CN(Cc2cccc(C(F)(F)F)c2)c2nc(-c3ccc(-c4nnc[nH]4)cc3)cnc2N1", "note": "[Example 145, 6-(4-(4H-1,2,4-triazol-3-yl)phenyl)-4-(3-(trifluoromethyl)benzyl)-3,4-dihydropyrazino[2,3-b]pyrazin-2(1H)-one]", "values": [{"measurement": "IC50", "value": "0.005 to 250", "unit": "nM"}]}
{"smiles": "Cc1cc(-c2cnc3c(n2)N(CCC2CCOCC2)CC(=O)N3)cc2[nH]cnc12", "note": "[Example 147, 6-(4-methyl-1H-benzo[d]imidazol-6-yl)-4-(2-(tetrahydro-2H-pyran-4-yl)ethyl)-3,4-dihydropyrazino[2,3-b]pyrazin-2(1H)-one]", "values": [{"measurement": "IC50", "value": "500 to 1000", "unit": "nM"}]}
{"smiles": "CO[C@H]1CC[C@H](CN2C(=O)CNc3ncc(-c4cc(F)c(-c5nc[nH]n5)cc4C)nc32)CC1", "note": "[Example 150, 7-(5-fluoro-2-methyl-4-(1H-1,2,4-triazol-3-yl)phenyl)-1-((trans-4-methoxycyclohexyl)methyl)-3,4-dihydropyrazino[2,3-b]pyrazin-2(1H)-one]", "values": [{"measurement": "IC50", "value": "0.005 to 250", "unit": "nM"}]}
{"smiles": "CO[C@H]1CC[C@@H](N2C(=O)CNc3ncc(-c4ccc(-c5nc[nH]n5)nc4)nc32)CC1", "note": "[Example 151, 7-(6-(1H-1,2,4-triazol-3-yl)pyridin-3-yl)-1-(cis-4-methoxycyclohexyl)-3,4-dihydropyrazino[2,3-b]pyrazin-2(1H)-one]", "values": [{"measurement": "IC50", "value": "0.005 to 250", "unit": "nM"}]}
{"smiles": "O=C1CNc2ncc(-c3c[nH]c4ncccc34)nc2N1CCC1CCOCC1", "note": "[Example 152, 7-(1H-pyrrolo[2,3-b]pyridin-3-yl)-1-(2-(tetrahydro-2H-pyran-4-yl)ethyl)-3,4-dihydropyrazino[2,3-b]pyrazin-2(1H)-one]", "values": [{"measurement": "IC50", "value": "0.005 to 250", "unit": "nM"}]}
{"smiles": "CO[C@H]1CC[C@@H](CN2C(=O)CNc3ncc(-c4cc(F)c(-c5nc[nH]n5)cc4C)nc32)CC1", "note": "[Example 153, 7-(5-fluoro-2-methyl-4-(1H-1,2,4-triazol-3-yl)phenyl)-1-((cis-4-methoxycyclohexyl)methyl)-3,4-dihydropyrazino[2,3-b]pyrazin-2(1H)-one]", "values": [{"measurement": "IC50", "value": "0.005 to 250", "unit": "nM"}]}
{"smiles": "CCN1C(=O)CNc2ncc(-c3ccc4[nH]ccc4n3)nc21", "note": "[Example 154, 1-ethyl-7-(1H-pyrrolo[3,2-b]pyridin-5-yl)-3,4-dihydropyrazino[2,3-b]pyrazin-2(1H)-one]", "values": [{"measurement": "IC50", "value": "1000 to 10000", "unit": "nM"}]}
{"smiles": "CO[C@H]1CC[C@@H](CN2C(=O)CNc3ncc(-c4ccc(-c5nc[nH]n5)nc4)nc32)CC1", "note": "[Example 155, 7-(6-(1H-1,2,4-triazol-3-yl)pyridin-3-yl)-1-((cis-4-methoxycyclohexyl)methyl)-3,4-dihydropyrazino[2,3-b]pyrazin-2(1H)-one]", "values": [{"measurement": "IC50", "value": "0.005 to 250", "unit": "nM"}]}
{"smiles": "O=C1CNc2ncc(-c3cccc4[nH]cnc34)nc2N1CCC1CCOCC1", "note": "[Example 156, 7-(1H-benzo[d]imidazol-4-yl)-1-(2-(tetrahydro-2H-pyran-4-yl)ethyl)-3,4-dihydropyrazino[2,3-b]pyrazin-2(1H)-one]", "values": [{"measurement": "IC50", "value": "500 to 1000", "unit": "nM"}]}
{"smiles": "O=C1CNc2ncc(-c3ccnc4[nH]ccc34)nc2N1CCC1CCOCC1", "note": "[Example 157, 7-(1H-pyrrolo[2,3-b]pyridin-4-yl)-1-(2-(tetrahydro-2H-pyran-4-yl)ethyl)-3,4-dihydropyrazino[2,3-b]pyrazin-2(1H)-one]", "values": [{"measurement": "IC50", "value": "0.005 to 250", "unit": "nM"}]}
{"smiles": "CO[C@H]1CC[C@H](CN2C(=O)CNc3ncc(-c4ccc(-c5nc[nH]n5)nc4)nc32)CC1", "note": "[Example 158, 7-(6-(1H-1,2,4-triazol-3-yl)pyridin-3-yl)-1-((trans-4-methoxycyclohexyl)methyl)-3,4-dihydropyrazino[2,3-b]pyrazin-2(1H)-one]", "values": [{"measurement": "IC50", "value": "0.005 to 250", "unit": "nM"}]}
{"smiles": "O=C1CNc2ncc(-c3ccc(-c4nc[nH]n4)nc3)nc2N1C[C@H]1CC[C@H](O)CC1", "note": "[Example 159, 7-(6-(1H-1,2,4-triazol-3-yl)pyridin-3-yl)-1-((trans-4-hydroxycyclohexyl)methyl)-3,4-dihydropyrazino[2,3-b]pyrazin-2(1H)-one]", "values": [{"measurement": "IC50", "value": "0.005 to 250", "unit": "nM"}]}
